In US20220370481A1, “VENETOCLAX DOSING REGIMENS FOR USE IN TREATING MYELODYSPLASTIC SYNDROMES IN COMBINATION WITH A CYP3A INHIBITOR AND AZACITIDINE” (priority 2021, published 2022):
Where two headings read alike, the source gives them in different places.

Test system: adults with previously untreated higher-risk MDS
Settings: with azacitidine
Description: A multicenter, non-randomized Phase 1b study in adults with previously untreated higher-risk MDS, defined as IPSS risk categories of Int-2 or High (IPSS overall score ≥1.5) was initiated. The original protocol randomized patients into 1 of 3 treatment groups: venetoclax 800 mg + azacitidine, venetoclax 400 mg + azacitidine, and azacitidine monotherapy. Under the original protocol, venetoclax was administered on Days 1 through 28 of each 28-day-cycle and dosing was initiated according to a ramp-up dosing schedule in Cycle 1.
Subjects 18 years or older diagnosed with treatment-naïve IPSS intermediate-2 or high-risk myelodysplastic syndromes with ECOG ≤2 were enrolled. For this study, inclusion criteria included the following: • 1. Subject must be ≥18 years of age. • 2. Subject must have documented diagnosis of previously untreated de novo MDS with: • a. International Prognostic Scoring System (IPSS) risk categories Intermediate-2 or High (i.e., minimum IPSS score of 1.5) OR Revised IPSS (IPSS-R) categories Intermediate, High or Very High (score of >3); and • b. Presence of <20% bone marrow blasts per bone marrow biopsy/aspirate. • 3. Subject must have an Eastern Cooperative Oncology Group (ECOG) performance score of ≤2.
Azacitidine 75 mg/m^2 (intravenous or subcutaneous daily) was administered for 7 days and venetoclax was administered at 400 mg for 14 days in each 28 day cycle. In both cohorts, dose modification during Cycle 1 was not recommended. Dose modifications in subsequent cycles were prescribed for adverse events. […] In subsequent cycles, venetoclax duration could be shortened to 9 days of each cycle. In Safety Expansion Cohort 2 (SE2), dose modification guidelines recommended stepwise reductions, first in azacitidine dose (first to 50 mg/m^2, then 36 mg/m^2) and subsequently in venetoclax duration to 7 days of each cycle (venetoclax 400 mg) as shown in Table 4. The impact of each dose modification strategy on safety and efficacy in SE1 versus SE2 was compared. Worsening of treatment-emergent adverse events grades from baseline was analyzed by cycle. Responses were evaluated using IWG 2006 criteria. Analyses included all subject who received ≥1 dose of study drug.
After a previous interruption of treatment, delay starting the next cycle, onset of adverse events associated with hematological toxicity, significant reduction of neutrophils, or significant reduction of platelets, a treatment dose reduction may be indicated. […] Venetoclax and azacitidine were resumed on the same day after any delays or interruptions in treatment.

Venetoclax dose delay by end of each cycle (Cycle 2, SE1, n = 22): 14 (63) n (%)
Venetoclax dose delay by end of each cycle, Median # days (range) (Cycle 2, SE1, n = 22): 7.5 (1-21) days
Venetoclax dose delay by end of each cycle (Cycle 2, SE2, n = 21): 13 (62) n (%)
Venetoclax dose delay by end of each cycle, Median # days (range) (Cycle 2, SE2, n = 21): 8 (5-21) days
Venetoclax dose delay by end of each cycle (Cycle 3, SE1, n = 22): 12 (55) n (%)
Venetoclax dose delay by end of each cycle, Median # days (range) (Cycle 3, SE1, n = 22): 14 (3-28) days
Venetoclax dose delay by end of each cycle (Cycle 3, SE2, n = 21): 10 (48) n (%)
Venetoclax dose delay by end of each cycle, Median # days (range) (Cycle 3, SE2, n = 21): 8.5 (1-48) days
Venetoclax dose delay by end of each cycle (Cycle 4, SE1, n = 22): 8 (36) n (%)
Venetoclax dose delay by end of each cycle, Median # days (range) (Cycle 4, SE1, n = 22): 17 (1-54) days
Venetoclax dose delay by end of each cycle (Cycle 4, SE2, n = 21): 6 (28) n (%)
Venetoclax dose delay by end of each cycle, Median # days (range) (Cycle 4, SE2, n = 21): 9 (6-43) days
Venetoclax dose delay by end of each cycle (Cycle 5, SE1, n = 22): 7 (32) n (%)
Venetoclax dose delay by end of each cycle, Median # days (range) (Cycle 5, SE1, n = 22): 14 (3-28) days
Venetoclax dose delay by end of each cycle (Cycle 5, SE2, n = 21): 9 (43) n (%)
Venetoclax dose delay by end of each cycle, Median # days (range) (Cycle 5, SE2, n = 21): 14 (1-97) days
Venetoclax dose delay by end of each cycle (Cycle 6, SE1, n = 22): 7 (32) n (%)
Venetoclax dose delay by end of each cycle, Median # days (range) (Cycle 6, SE1, n = 22): 7 (1-21) days
Venetoclax dose delay by end of each cycle (Cycle 6, SE2, n = 21): 5 (24) n (%)
Venetoclax dose delay by end of each cycle, Median # days (range) (Cycle 6, SE2, n = 21): 14 (6-91) days
Patients with ≥1 Ven dose amount reduction (SE1, n = 22): 10 (45) n (%)
Venetoclax: Median days to duration reduction (SE1, n = 22): 52 days
Patients with ≥1 Ven dose amount reduction (SE2, n = 21): 10 (48) n (%)
Structure (SMILES): CC1(C)CCC(CN2CCN(c3ccc(C(=O)NS(=O)(=O)c4ccc(NCC5CCOCC5)c([N+](=O)[O-])c4)c(Oc4cnc5[nH]ccc5c4)c3)CC2)=C(c2ccc(Cl)cc2)C1 [Venetoclax, 4-(4-{[2-(4-chlorophenyl)-4,4-dimethylcyclohex-1-en-1-yl]methyl}piperazin-1-yl)-N-({3nitro-4-[(tetrahydro-2H-pyran-4-ylmethyl)amino]phenyl}sulfonyl)-2-(1H-pyrrolo[2,3-b]pyridin5-yloxy)benzamide]
# of reductions in Venetoclax duration (due to hematologic toxicity) (SE1, n = 22): 3 (14)
# of reductions in Venetoclax duration (due to hematologic toxicity) (SE2, n = 21): 0
